Results taken from patent US20230135729A1, “COMPOUND WITH ANTI-SPORE ACTIVITY AND PHARMACEUTICAL COMPOSITION THEREOF” (priority 2020, published 2023).
Values after ≈ are worked out from the molar mass of the structure shown.

Columns and labels:
Assay type in all cases: cell-based
[1] = tested on: spores of ATCC BBA1870 strain; assay: Inhibition of germination of C. difficile spores (MIC), strain ATCC BBA1870; conditions: Clostridioides difficile, ATCCBBA1870STRAIN, 1 h; strain 1870; sodium taurocholate as germinant, BHIS medium, 37° C., OD580 for 60 min; read-out: MIC (minimum concentration that completely inhibits spore germination)
Protocol: (§1) According to a method disclosed in “The Journal of Infectious Diseases. 2013; 207: 1498-504”, spores of ATCC BBA1870, ATCC 43255 and ATCC 630 strains were obtained by culture and purification, and stored at 4° C.
(§2) Spore preparation: the C. difficile spores stored at 4° C. were heat-activated for 30 min at 65° C., centrifuged at 9,400 g for 2 min, and washed three times to remove any self-germinating spores.
(§3) Control drug: three cholic acid derivatives, a compound CamSA, a compound 20β (prepared by the method of “Journal of Medicinal Chemistry. 2017, 60 (8): 3451-3471”), and a compound 12a (prepared by the method of “Journal of Medicinal Chemistry. 2018, 61, 6759-6778”), were used as control drugs.
(§4) Compound preparation: the compound of the present disclosure, and the positive control drugs CamSA, 20β, and 12a were dissolved in DMSO, to prepare a stock solution with a concentration of 10 mM (prepared for immediate use).
(§5) The detection was conducted in a 96-well cell culture plate at a constant temperature of 37° C.; a final volume of each well of the 96-well plate was […] and a buffer was the BHIS medium; 150 μl of spores and drugs were added to the well in advance, and 50 μl of 4 mg/ml sodium taurocholate was added; OD580 was detected every 1 min immediately using a microplate reader, for continuously 60 min. A germination agent control group and a non-germination group were set up; after the detection, a final OD value of each well was compared with an initial value, and compared with the germination agent group to calculate a germination rate and an inhibition rate. A formula for the germination rate was:
(§6) Inhibition rate=100%−germination rate.

[2] = tested on: spores of ATCC 43255 strain; assay: Inhibition of germination of C. difficile spores (MIC), strain ATCC 43255; conditions: Clostridioides difficile, ATCC43255, 1 h; strain 43255; sodium taurocholate as germinant, BHIS medium, 37° C., OD580 for 60 min; read-out: MIC (minimum concentration that completely inhibits spore germination)
Protocol: as §1, §2, §3, §4, §5, §6

[3] = tested on: spores of ATCC 630 strain; assay: Inhibition of germination of C. difficile spores (MIC), strain ATCC 630; conditions: Clostridioides difficile, ATCC630, 1 h; strain 630; sodium taurocholate as germinant, BHIS medium, 37° C., OD580 for 60 min; read-out: MIC (minimum concentration that completely inhibits spore germination)
Protocol: as §1, §2, §3, §4, §5, §6

Row | SMILES | MIC [1] [µM] | MIC [2] [µM] | MIC [3] [µM]
1 | CCCCCCCCCCCC(NC(=O)C[C@@H](C)[C@H]1CC[C@H]2[C@@H]3C(=O)C[C@@H]4CC(=O)CC[C@]4(C)[C@H]3CC[C@]12C)c1cccs1 (stereo partly drawn) [Compound I-46] | > 256 | > 256 | > 256
2 | C[C@H](CC(=O)NCc1ccccn1)[C@H]1CC[C@H]2[C@@H]3[C@H](O)C[C@@H]4C[C@H](O)CC[C@]4(C)[C@H]3CC[C@]12C [Compound I-6] | 64 (≈ 30 µg/mL) | 64 (≈ 30 µg/mL) | 64 (≈ 30 µg/mL)
3 | CCC(NC(=O)C[C@@H](C)[C@H]1CC[C@H]2[C@@H]3C[C@H](O)[C@@H]4C[C@H](O)CC[C@]4(C)[C@H]3CC[C@]12C)c1cccs1 (stereo partly drawn) [Compound I-125] | 2 (≈ 1 µg/mL) | 2 (≈ 1 µg/mL) | 2 (≈ 1 µg/mL)
4 | CC(C)[C@@H](NC(=O)C[C@@H](C)[C@H]1CC[C@H]2[C@@H]3C(=O)C[C@@H]4CC(=O)CC[C@]4(C)[C@H]3CC[C@]12C)c1ccc(C(=O)CCCCCCC(=O)O)s1 [Compound I-206] | 256 (≈ 171 µg/mL) | 128 (≈ 85.5 µg/mL) | 128 (≈ 85.5 µg/mL)
5 | C[C@H](CC(=O)NCc1ccccn1)[C@H]1CC[C@H]2[C@@H]3C(=O)C[C@@H]4CC(=O)CC[C@]4(C)[C@H]3CC[C@]12C [Compound I-65] | 128 (≈ 59.5 µg/mL) | 128 (≈ 59.5 µg/mL) | 128 (≈ 59.5 µg/mL)
6 | CC[C@@H](NC(=O)C[C@@H](C)[C@H]1CC[C@H]2[C@@H]3[C@H](OC(C)=O)CC4=CC(=O)C=C[C@]4(C)[C@H]3CC[C@]12C)c1ccc(Cl)s1 [I-161 -1] | 0.5 (≈ 0.286 µg/mL) | 0.5 (≈ 0.286 µg/mL) | 0.25 (≈ 0.143 µg/mL)
7 | CC(C)[C@@H](NC(=O)C[C@@H](C)[C@H]1CC[C@H]2[C@@H]3C(=O)C[C@@H]4CC(=O)CC[C@]4(C)[C@H]3CC[C@]12C)c1ccc(C=O)s1 [Compound I-200] | 32 (≈ 17.3 µg/mL) | 32 (≈ 17.3 µg/mL) | 16 (≈ 8.64 µg/mL)
8 | C[C@H](CC(=O)NCc1cccs1)[C@H]1CC[C@H]2[C@@H]3C(=O)C[C@@H]4CC(=O)CC[C@]4(C)[C@H]3CC[C@]12C [Compound I-26] | 0.5 (≈ 0.235 µg/mL) | 1 (≈ 0.47 µg/mL) | 0.5 (≈ 0.235 µg/mL)
9 | CC(C)[C@@H](NC(=O)C[C@@H](C)[C@H]1CC[C@H]2[C@@H]3C(=O)CC4=CC(=O)C=C[C@]4(C)[C@H]3CC[C@]12C)c1ccc(Cl)s1 [Compound I-154] | 1 (≈ 0.542 µg/mL) | 0.5 (≈ 0.271 µg/mL) | 0.5 (≈ 0.271 µg/mL)
10 | CC[C@@H](NC(=O)C[C@@H](C)[C@H]1CC[C@H]2[C@@H]3[C@H](OC(C)=O)C[C@@H]4CC(=O)CC[C@]4(C)[C@H]3CC[C@]12C)c1ccc(Cl)s1 [Compound I-175] | 1 (≈ 0.576 µg/mL) | 1 (≈ 0.576 µg/mL) | 0.5 (≈ 0.288 µg/mL)
11 | CCC(NC(=O)C[C@@H](C)[C@H]1CC[C@H]2[C@@H]3C(=O)C[C@@H]4CC(=O)CC[C@]4(C)[C@H]3CC[C@]12C)c1ccc(Cl)s1 (stereo partly drawn) [Compound I-68] | 1 (≈ 0.532 µg/mL) | 2 (≈ 1.06 µg/mL) | 1 (≈ 0.532 µg/mL)
12 | CC[C@@H](NC(=O)C[C@@H](C)[C@H]1CC[C@H]2[C@@H]3[C@H](O)C[C@@H]4C[C@H](O)CC[C@]4(C)[C@H]3CC[C@]12C)c1ccc(Cl)s1 [Compound I-137] | 1 (≈ 0.536 µg/mL) | 1 (≈ 0.536 µg/mL) | 1 (≈ 0.536 µg/mL)
13 | CCC(NC(=O)C[C@@H](C)[C@H]1CC[C@H]2[C@@H]3[C@H](O)C[C@@H]4CC(=O)CC[C@]4(C)[C@H]3CC[C@]12C)c1cccs1 (stereo partly drawn) [Compound I-84] | 1 (≈ 0.5 µg/mL) | 1 (≈ 0.5 µg/mL) | 1 (≈ 0.5 µg/mL)
14 | CC(=O)O[C@@H]1C[C@@H]2CC(=O)CC[C@]2(C)[C@H]2CC[C@]3(C)[C@@H]([C@H](C)CC(=O)N[C@@H](c4ccc(Cl)s4)C(C)C)CC[C@H]3[C@H]12 [Compound I-177] | 0.5 (≈ 0.295 µg/mL) | 1 (≈ 0.59 µg/mL) | 0.5 (≈ 0.295 µg/mL)
15 | CC(C)C(NC(=O)C[C@@H](C)[C@H]1CC[C@H]2[C@@H]3C(=O)C[C@@H]4CC(=O)CC[C@]4(C)[C@H]3CC[C@]12C)c1ccc(S(=O)(=O)O)s1 (stereo partly drawn) [Compound I-81] | 32 (≈ 18.9 µg/mL) | 32 (≈ 18.9 µg/mL) | 32 (≈ 18.9 µg/mL)
16 | C[C@H](CC(=O)N[C@H](c1cccs1)C1CC1)[C@H]1CC[C@H]2[C@@H]3C(=O)C[C@@H]4CC(=O)CC[C@]4(C)[C@H]3CC[C@]12C [Compound I-49] | > 256 | > 256 | > 256
17 | CCCCCCCC(=O)O[C@@H]1C[C@@H]2CC(=O)CC[C@]2(C)[C@H]2CC[C@]3(C)[C@@H]([C@H](C)CC(=O)N[C@H](CC)c4ccc(Br)s4)CC[C@H]3[C@H]12 [Compound I-184] | 128 (≈ 90.2 µg/mL) | 128 (≈ 90.2 µg/mL) | 128 (≈ 90.2 µg/mL)
18 | C[C@H](CC(=O)NC(c1cccs1)C1CCCCC1)[C@H]1CC[C@H]2[C@@H]3C(=O)C[C@@H]4CC(=O)CC[C@]4(C)[C@H]3CC[C@]12C (stereo partly drawn) [Compound I-54] | > 256 | > 256 | 256 (≈ 141 µg/mL)
19 | CC[C@@H](NC(=O)C[C@@H](C)[C@H]1CC[C@H]2[C@@H]3C(=O)C[C@@H]4CC(=O)CC[C@]4(C)[C@H]3CC[C@]12C)c1ccc(Br)s1 [Compound I-72] | 1 (≈ 0.577 µg/mL) | 1 (≈ 0.577 µg/mL) | 0.5 (≈ 0.288 µg/mL)
20 | CC(C)[C@@H](NC(=O)C[C@@H](C)[C@H]1CC[C@H]2[C@@H]3[C@@H](O)C[C@@H]4C[C@H](O)CC[C@]4(C)[C@H]3CC[C@]12C)c1ccc(Br)s1 [Compound I-142] | 32 (≈ 19 µg/mL) | 32 (≈ 19 µg/mL) | 32 (≈ 19 µg/mL)
21 | C[C@H](CC(=O)NC(CC(=O)O)c1ccccc1)[C@H]1CC[C@H]2[C@@H]3C(=O)C[C@@H]4CC(=O)CC[C@]4(C)[C@H]3CC[C@]12C (stereo partly drawn) [Compound I-64] | > 256 | > 256 | > 256
22 | CC(C)[C@H](NC(=O)C[C@@H](C)[C@H]1CC[C@H]2[C@@H]3[C@H](O)C[C@@H]4CC(=O)CC[C@]4(C)[C@H]3CC[C@]12C)c1ccc(S(=O)(=O)O)s1 [Compound I-102] | > 256 | > 256 | > 256
23 | CC[C@@H](NC(=O)C[C@@H](C)[C@H]1CC[C@H]2[C@@H]3[C@H](O)C[C@@H]4CC(=O)CC[C@]4(C)[C@H]3C[C@H](O)[C@]12C)c1ccc(Br)s1 [Compound I-165] | 64 (≈ 38.1 µg/mL) | 64 (≈ 38.1 µg/mL) | 32 (≈ 19 µg/mL)
24 | CC[C@H](NC(=O)C[C@@H](C)[C@H]1CC[C@H]2[C@@H]3C(=O)C[C@@H]4CC(=O)CC[C@]4(C)[C@H]3CC[C@]12C)c1ccc(S(=O)(=O)O)s1 [Compound I-73] | > 256 | > 256 | > 256
25 | CC(NC(=O)C[C@@H](C)[C@H]1CC[C@H]2[C@@H]3[C@H](O)C[C@@H]4C[C@H](O)CC[C@]4(C)[C@H]3CC[C@]12C)c1cccs1 (stereo partly drawn) [Compound I-8] | 4 (≈ 1.95 µg/mL) | 2 (≈ 0.976 µg/mL) | 4 (≈ 1.95 µg/mL)
26 | C[C@H](CC(=O)NC(c1cccs1)C(C)(C)C)[C@H]1CC[C@H]2[C@@H]3C(=O)C[C@@H]4CC(=O)CC[C@]4(C)[C@H]3CC[C@]12C (stereo partly drawn) [Compound I-43] | 64 (≈ 33.7 µg/mL) | 32 (≈ 16.8 µg/mL) | 32 (≈ 16.8 µg/mL)
27 | CC(C)[C@H](NC(=O)C[C@@H](C)[C@H]1CC[C@H]2[C@@H]3[C@H](O)C[C@@H]4CC(=O)CC[C@]4(C)[C@H]3CC[C@]12C)c1ccc(Br)s1 [Compound I-99] | > 256 | 256 (≈ 152 µg/mL) | 256 (≈ 152 µg/mL)
28 | CC[C@@H](NC(=O)C[C@@H](C)[C@H]1CC[C@H]2[C@@H]3[C@H](OC(=O)CCC(=O)O)C[C@@H]4CC(=O)CC[C@]4(C)[C@H]3CC[C@]12C)c1ccc(Cl)s1 [Compound I-179] | 2 (≈ 1.27 µg/mL) | 2 (≈ 1.27 µg/mL) | 2 (≈ 1.27 µg/mL)
29 | C[C@H](NC(=O)C[C@@H](C)[C@H]1CC[C@H]2[C@@H]3C(=O)C[C@@H]4CC(=O)CC[C@]4(C)[C@H]3CC[C@]12C)c1ccccc1 [Compound I-24] | > 256 | > 256 | > 256
30 | CC[C@H](NC(=O)C[C@@H](C)[C@H]1CC[C@H]2[C@@H]3[C@H](O)C[C@@H]4CC(=O)CC[C@]4(C)[C@H]3CC[C@]12C)c1cccs1 [Compound I-132] | > 256 | 128 (≈ 64 µg/mL) | 256 (≈ 128 µg/mL)
